Tested on: sputum cells (dysplastic, pre-cancerous and cancerous cells)
Assay: Glass slide assay for detection of pre-cancerous and cancerous cells with TCPP (fluorescence microscopy of sputum monolayer slides vs PAP-stain cytomorphology)
Format: cell-based, human
Settings: for Slides with morphology using TCPP/Slides with morphology using cytomorphology: N = 60 blinded sputum samples, 40 μg/mL TCPP
[1] = of the six TCPP samples with class 11 designation

With `O=C(O)c1ccc(-c2c3nc(c(-c4ccc(C(=O)O)cc4)c4ccc([nH]4)c(-c4ccc(C(=O)O)cc4)c4nc(c(-c5ccc(C(=O)O)cc5)c5ccc2[nH]5)C=C4)C=C3)cc1` [TCPP] as the compound, how does the “Number of Samples with Cells having Numerical Description by TCPP Fluorescence Microscopy/Number of Samples with Cell Description by Cytmorphology” value (9 = Degenerated cell clusters, medium to high fluorescence, Moderate dysplasia (n = 9)) read?
Its value is 0/9.

What about the “Number of Samples with Cells having Numerical Description by TCPP Fluorescence Microscopy/Number of Samples with Cell Description by Cytmorphology” value (9 = Degenerated cell clusters, medium to high fluorescence, Negative or metaplastic (n = 10)) of the same compound?
The value was 0/10.

And the “Number of Samples with Cells having Numerical Description by TCPP Fluorescence Microscopy/Number of Samples with Cell Description by Cytmorphology” value (9 = Degenerated cell clusters, medium to high fluorescence, Severe dysplasia (n = 8))?
Its value is 0/8.

What about the “Number of Samples with Cells having Numerical Description by TCPP Fluorescence Microscopy/Number of Samples with Cell Description by Cytmorphology” value (10 = Cells uniform size with small round nucleus, medium fluorescence (nucleus only), Adenicarcinoma, squamous cell and small cell carcinoma (n = 10)) of the same compound?
The value was 2/10.

What about the “Number of Samples with Cells having Numerical Description by TCPP Fluorescence Microscopy/Number of Samples with Cell Description by Cytmorphology” value (10 = Cells uniform size with small round nucleus, medium fluorescence (nucleus only), Carcinoma in situ (n = 11)) of the same compound?
Its value is 1/11.

And the “Number of Samples with Cells having Numerical Description by TCPP Fluorescence Microscopy/Number of Samples with Cell Description by Cytmorphology” value (10 = Cells uniform size with small round nucleus, medium fluorescence (nucleus only), Mild dysplasia (n = 12))?
Its value is 2/12.

And the “Number of Samples with Cells having Numerical Description by TCPP Fluorescence Microscopy/Number of Samples with Cell Description by Cytmorphology” value (10 = Cells uniform size with small round nucleus, medium fluorescence (nucleus only), Moderate dysplasia (n = 9))?
Its value is 2/9.

What about the “Number of Samples with Cells having Numerical Description by TCPP Fluorescence Microscopy/Number of Samples with Cell Description by Cytmorphology” value (10 = Cells uniform size with small round nucleus, medium fluorescence (nucleus only), Negative or metaplastic (n = 10)) of the same compound?
The value was 2/10.

And the “Number of Samples with Cells having Numerical Description by TCPP Fluorescence Microscopy/Number of Samples with Cell Description by Cytmorphology” value (10 = Cells uniform size with small round nucleus, medium fluorescence (nucleus only), Severe dysplasia (n = 8))?
Its value is 1/8.

And the “Number of Samples with Cells having Numerical Description by TCPP Fluorescence Microscopy/Number of Samples with Cell Description by Cytmorphology” value (11 = Cell membrane barely visible, medium fluorescence, Adenicarcinoma, squamous cell and small cell carcinoma (n = 10))?
The value was 0/10.

What about the “Number of Samples with Cells having Numerical Description by TCPP Fluorescence Microscopy/Number of Samples with Cell Description by Cytmorphology” value (11 = Cell membrane barely visible, medium fluorescence, Carcinoma in situ (n = 11)) of the same compound?
The value was 2/11.

What about the “Number of Samples with Cells having Numerical Description by TCPP Fluorescence Microscopy/Number of Samples with Cell Description by Cytmorphology” value (11 = Cell membrane barely visible, medium fluorescence, Mild dysplasia (n = 12)) of the same compound?
The value was 6/12.

What about the “Number of Samples with Cells having Numerical Description by TCPP Fluorescence Microscopy/Number of Samples with Cell Description by Cytmorphology” value (11 = Cell membrane barely visible, medium fluorescence, Moderate dysplasia (n = 9)) of the same compound?
The value was 2/9.

What about the “Number of Samples with Cells having Numerical Description by TCPP Fluorescence Microscopy/Number of Samples with Cell Description by Cytmorphology” value (11 = Cell membrane barely visible, medium fluorescence, Negative or metaplastic (n = 10)) of the same compound?
The value was 6/10.

And the “Number of Samples with Cells having Numerical Description by TCPP Fluorescence Microscopy/Number of Samples with Cell Description by Cytmorphology” value (11 = Cell membrane barely visible, medium fluorescence, Severe dysplasia (n = 8))?
The value was 2/8.

What about the “Number of Samples with Cells having Numerical Description by TCPP Fluorescence Microscopy/Number of Samples with Cell Description by Cytmorphology” value (12 = Nuclear debris clumps, no fluorescence, Adenicarcinoma, squamous cell and small cell carcinoma (n = 10)) of the same compound?
Its value is 0/10.

And the “Number of Samples with Cells having Numerical Description by TCPP Fluorescence Microscopy/Number of Samples with Cell Description by Cytmorphology” value (12 = Nuclear debris clumps, no fluorescence, Carcinoma in situ (n = 11))?
Its value is 0/11.

And the “Number of Samples with Cells having Numerical Description by TCPP Fluorescence Microscopy/Number of Samples with Cell Description by Cytmorphology” value (12 = Nuclear debris clumps, no fluorescence, Mild dysplasia (n = 12))?
Its value is 1/12.

What about the “Number of Samples with Cells having Numerical Description by TCPP Fluorescence Microscopy/Number of Samples with Cell Description by Cytmorphology” value (12 = Nuclear debris clumps, no fluorescence, Moderate dysplasia (n = 9)) of the same compound?
The value was 0/9.

What about the “Number of Samples with Cells having Numerical Description by TCPP Fluorescence Microscopy/Number of Samples with Cell Description by Cytmorphology” value (12 = Nuclear debris clumps, no fluorescence, Negative or metaplastic (n = 10)) of the same compound?
The value was 0/10.

And the “Number of Samples with Cells having Numerical Description by TCPP Fluorescence Microscopy/Number of Samples with Cell Description by Cytmorphology” value (12 = Nuclear debris clumps, no fluorescence, Severe dysplasia (n = 8))?
The value was 0/8.

What about the “Number of Samples with Cells having Numerical Description by TCPP Fluorescence Microscopy/Number of Samples with Cell Description by Cytmorphology” value (13 = Nuclear debris background, no fluorescence, Adenicarcinoma, squamous cell and small cell carcinoma (n = 10)) of the same compound?
Its value is 3/10.

What about the “Number of Samples with Cells having Numerical Description by TCPP Fluorescence Microscopy/Number of Samples with Cell Description by Cytmorphology” value (13 = Nuclear debris background, no fluorescence, Carcinoma in situ (n = 11)) of the same compound?
Its value is 5/11.

And the “Number of Samples with Cells having Numerical Description by TCPP Fluorescence Microscopy/Number of Samples with Cell Description by Cytmorphology” value (13 = Nuclear debris background, no fluorescence, Mild dysplasia (n = 12))?
Its value is 5/12.

What about the “Number of Samples with Cells having Numerical Description by TCPP Fluorescence Microscopy/Number of Samples with Cell Description by Cytmorphology” value (13 = Nuclear debris background, no fluorescence, Moderate dysplasia (n = 9)) of the same compound?
The value was 8/9.

What about the “Number of Samples with Cells having Numerical Description by TCPP Fluorescence Microscopy/Number of Samples with Cell Description by Cytmorphology” value (13 = Nuclear debris background, no fluorescence, Negative or metaplastic (n = 10)) of the same compound?
Its value is 6/10.

And the “Number of Samples with Cells having Numerical Description by TCPP Fluorescence Microscopy/Number of Samples with Cell Description by Cytmorphology” value (13 = Nuclear debris background, no fluorescence, Severe dysplasia (n = 8))?
Its value is 2/8.

What about the “Number of Samples with Cells having Numerical Description by TCPP Fluorescence Microscopy/Number of Samples with Cell Description by Cytmorphology” value (14 = Nuclear debris background, medium fluorescence, Adenicarcinoma, squamous cell and small cell carcinoma (n = 10)) of the same compound?
The value was 0/10.

What about the “Number of Samples with Cells having Numerical Description by TCPP Fluorescence Microscopy/Number of Samples with Cell Description by Cytmorphology” value (14 = Nuclear debris background, medium fluorescence, Carcinoma in situ (n = 11)) of the same compound?
The value was 1/11.

And the “Number of Samples with Cells having Numerical Description by TCPP Fluorescence Microscopy/Number of Samples with Cell Description by Cytmorphology” value (14 = Nuclear debris background, medium fluorescence, Mild dysplasia (n = 12))?
The value was 2/12.

What about the “Number of Samples with Cells having Numerical Description by TCPP Fluorescence Microscopy/Number of Samples with Cell Description by Cytmorphology” value (14 = Nuclear debris background, medium fluorescence, Moderate dysplasia (n = 9)) of the same compound?
Its value is 2/9.

And the “Number of Samples with Cells having Numerical Description by TCPP Fluorescence Microscopy/Number of Samples with Cell Description by Cytmorphology” value (14 = Nuclear debris background, medium fluorescence, Negative or metaplastic (n = 10))?
The value was 1/10.

What about the “Number of Samples with Cells having Numerical Description by TCPP Fluorescence Microscopy/Number of Samples with Cell Description by Cytmorphology” value (14 = Nuclear debris background, medium fluorescence, Severe dysplasia (n = 8)) of the same compound?
The value was 1/8.

What about the “Avg. # numerical descriptions per cell examined” value (Adenicarcinoma, squamous cell and small cell carcinoma (n = 10)) of the same compound?
The value was 4.90.

What about the “Slides with morphology using TCPP/Slides with morphology using cytomorphology” value (from here on “Slides with morphology using TCPP/Slides”) (Adenocarcinoma, squamous cell and small cell carcinoma) of the same compound?
The value was 10/10.

And the “Avg. # numerical descriptions per cell examined” value (Carcinoma in situ (n = 11))?
Its value is 4.82.

What about the “Slides with morphology using TCPP/Slides” value (Carcinoma in situ) of the same compound?
The value was 11/11.

What about the “Avg. # numerical descriptions per cell examined” value (Mild dysplasia (n = 12)) of the same compound?
The value was 3.08.

And the “Slides with morphology using TCPP/Slides” value (Mild dysplasia)?
The value was 12/12.

And the “Avg. # numerical descriptions per cell examined” value (Moderate dysplasia (n = 9))?
The value was 4.11.

What about the “Slides with morphology using TCPP/Slides” value (Moderate dysplasia) of the same compound?
The value was 9/9.

What about the “Avg. # numerical descriptions per cell examined” value (Negative or metaplastic (n = 10)) of the same compound?
Its value is 1.80.

And the “Slides with morphology using TCPP/Slides” value (Negative or metaplastic, 10 minutes, 36° C.)?
Its value is 4/10.

What about the “Avg. # numerical descriptions per cell examined” value (Severe dysplasia (n = 8)) of the same compound?
Its value is 3.13.

What about the “Slides with morphology using TCPP/Slides” value (Severe dysplasia) of the same compound?
The value was 8/8.

What about the “Samples demonstrating the same morphology using the TCPP method” value (among the ten samples characterized as normal or metaplastic by PAP-staining) of the same compound?
Its value is “four”.

What about the “Sputum samples mildly dysplastic to cancerous by PAP-staining also identified as abnormal by TCPP detection” value (blinded study, 60 samples) of the same compound?
Its value is “Fifty out of fifty”.

And the “Average number of numerical classifications assigned” value (cells displaying adenicarcinoma, squamous cell and small cell carcinoma)?
The value was 5.

And the “Average number of numerical classifications assigned” value (cells having a negative or metaplastic morphology)?
The value was 2.

And the “Samples also indicating fluorescence from nuclear debris (class 13 or 14)” value [1]?
The value was “three”.

What about the “Samples also showing class 10 designation (fluorescence from the nucleus only)” value [1] of the same compound?
Its value is “two”.

What about the “Samples designated with a class 11 cell description based on TCPP fluorescence” value (of the ten cell samples negative or metaplastic by PAP-staining) of the same compound?
Its value is 6.

What about the TCPP uptake (samples diagnosed as normal) of the same compound?
Its TCPP uptake is “minimal or no TCPP uptake”.

And the “TCPP-exposed cells fluorescing at which the sample reliably correlated with at least the mildly dysplastic diagnosis” value (sputum monolayer slides)?
The value was 2-3%.

From patent publication US9417241B2, “5, 10, 15, 20-tetrakis (carboxyphenyl) porphine (TCPP) and kit for use with detecting cancer” (bioAffinity Technologies, Inc., priority 2000, dated 2016)
